According to patent publication US20260234125A1, “CYCLIC AMINE DERIVATIVE, AND COMPOSITION AND USE THEREOF” (SHANGHAI JINGXIN BIOMEDICAL CO., LTD., priority 2023, published 2026):
pKd: −log10 of the molar value.

molecular target: T1, human Apo(a) protein (Homo sapiens, UniProt P08519); experiment: BLI affinity of compounds to Apo(a); type: binding; conditions: biotinylated apolipoprotein(a) on SA sensor, compound 100 nM
T1 construct: biotin (biotinylated)
Protocol: • 1. Experimental purpose: The purpose of this test is to test the affinity of the compounds of the present disclosure to Apo(a) • 2. Experimental instruments and reagents: • Molecular interaction analyzer (ForteBio Octet red 96e), • SA sensor (ForteBio), • 96-well plates were purchased from Greine, • 3. Experimental methods:
Prepared two 96-well plates, one as a sample plate and another as a pre-wett plate, curing buffer was added to a 200 μL well of the pre-wet plate, and the SA sensor was pre-wetted for at least ten minutes. All reagents and samples were added to another black sample plate, after the sample addition was completed, the sensor plate and the sample plate were placed into the ForteBio Octet red 96e instrument. The program was set up in sequence for detection. The experimental temperature was set to 30° C. and the acquisition frequency was set at 5.0 Hz. The biosensor was run in 1×PBS, pH7.4, 0.02% Tween-20, 0.1% BSA in the first column for 60 seconds, which was the baseline step. Biotinylated apolipoprotein(a) was diluted to 40 μg/ml with 1×PBS, pH7.4, 0.02% Tween-20, 0.1% BSA, and added to the second column, where it was run for a period of time until the amount of curing on the sensor reaches 2.0 nm. The biosensor was run in 1×PBS, pH7.4, 0.02% Tween-20, 0.1% BSA in the third column for 60 seconds, which was the baseline step. The compound was diluted to 100 nM with 1×PBS, pH7.4, 0.02% Tween-20, 0.1% BSA, and added to the fourth column, where the sensor was run for 60 seconds. The sensor was run in 1×PBS, pH7.4, 0.02% Tween-20, 0.1% BSA in the third column for 120 seconds, during this process, the compound dissociated from the sensor. The affinity constant KD reflects the size of the interaction binding ability. When the concentration of the analyte is at KD, the equilibrium signal Req is half of Rmax.

T1 sequence (P08519 20-2040): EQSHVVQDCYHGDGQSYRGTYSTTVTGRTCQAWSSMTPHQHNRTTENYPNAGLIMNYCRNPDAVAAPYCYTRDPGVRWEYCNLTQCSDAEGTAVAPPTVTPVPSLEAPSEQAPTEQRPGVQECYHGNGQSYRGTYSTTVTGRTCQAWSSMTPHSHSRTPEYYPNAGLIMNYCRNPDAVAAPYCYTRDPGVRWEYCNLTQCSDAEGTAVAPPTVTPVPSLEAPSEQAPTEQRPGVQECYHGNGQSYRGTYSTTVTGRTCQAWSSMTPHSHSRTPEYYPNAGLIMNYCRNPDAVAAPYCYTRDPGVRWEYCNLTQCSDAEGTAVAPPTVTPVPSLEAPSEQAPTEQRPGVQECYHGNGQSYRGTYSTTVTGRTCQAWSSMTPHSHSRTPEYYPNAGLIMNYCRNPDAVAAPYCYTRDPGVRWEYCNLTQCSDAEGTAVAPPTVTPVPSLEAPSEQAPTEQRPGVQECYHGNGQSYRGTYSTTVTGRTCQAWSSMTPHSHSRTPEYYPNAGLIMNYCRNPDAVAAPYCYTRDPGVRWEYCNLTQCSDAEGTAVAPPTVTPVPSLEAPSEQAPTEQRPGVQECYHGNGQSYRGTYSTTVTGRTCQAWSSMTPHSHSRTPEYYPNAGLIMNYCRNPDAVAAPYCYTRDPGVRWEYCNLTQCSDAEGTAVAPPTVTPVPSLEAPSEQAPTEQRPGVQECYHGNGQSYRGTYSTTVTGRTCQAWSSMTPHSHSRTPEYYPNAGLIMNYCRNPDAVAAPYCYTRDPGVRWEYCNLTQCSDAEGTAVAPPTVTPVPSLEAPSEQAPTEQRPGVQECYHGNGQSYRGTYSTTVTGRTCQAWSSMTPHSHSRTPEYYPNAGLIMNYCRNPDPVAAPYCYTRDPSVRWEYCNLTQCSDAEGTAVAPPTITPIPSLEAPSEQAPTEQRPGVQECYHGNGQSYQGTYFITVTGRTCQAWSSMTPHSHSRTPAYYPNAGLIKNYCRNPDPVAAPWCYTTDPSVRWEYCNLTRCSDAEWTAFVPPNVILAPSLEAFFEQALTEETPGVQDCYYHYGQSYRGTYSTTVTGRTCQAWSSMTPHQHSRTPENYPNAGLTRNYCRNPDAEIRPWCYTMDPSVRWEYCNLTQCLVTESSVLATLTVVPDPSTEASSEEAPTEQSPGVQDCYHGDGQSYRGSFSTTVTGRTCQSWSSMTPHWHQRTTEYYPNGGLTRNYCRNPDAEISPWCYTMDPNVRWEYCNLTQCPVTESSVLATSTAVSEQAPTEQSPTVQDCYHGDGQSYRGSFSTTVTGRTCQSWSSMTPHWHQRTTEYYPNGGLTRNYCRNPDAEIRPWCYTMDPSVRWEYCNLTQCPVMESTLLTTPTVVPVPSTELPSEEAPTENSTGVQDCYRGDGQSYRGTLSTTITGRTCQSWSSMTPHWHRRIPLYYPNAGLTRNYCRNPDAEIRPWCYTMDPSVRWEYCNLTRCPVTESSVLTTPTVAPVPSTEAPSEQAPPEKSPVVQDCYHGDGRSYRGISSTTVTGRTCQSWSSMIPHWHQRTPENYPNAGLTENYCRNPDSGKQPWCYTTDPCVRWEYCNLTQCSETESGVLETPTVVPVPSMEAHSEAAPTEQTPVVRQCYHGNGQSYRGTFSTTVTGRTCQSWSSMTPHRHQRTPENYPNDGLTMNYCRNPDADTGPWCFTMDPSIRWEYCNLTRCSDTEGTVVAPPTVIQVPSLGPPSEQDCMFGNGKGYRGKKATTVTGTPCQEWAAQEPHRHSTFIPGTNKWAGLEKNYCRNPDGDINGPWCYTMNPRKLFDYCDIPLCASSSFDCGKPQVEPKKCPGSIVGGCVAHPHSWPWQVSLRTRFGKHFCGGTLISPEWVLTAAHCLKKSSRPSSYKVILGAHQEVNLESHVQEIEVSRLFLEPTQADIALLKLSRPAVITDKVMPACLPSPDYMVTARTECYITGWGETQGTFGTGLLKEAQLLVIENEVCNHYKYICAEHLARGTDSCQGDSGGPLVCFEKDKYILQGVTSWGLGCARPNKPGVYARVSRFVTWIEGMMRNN

Row | SMILES | pKd
1 | O=C(O)[C@@H](Cc1cccc(COC2CC(OCc3cccc(C[C@H](C(=O)O)[C@H]4CCNC4)c3)CC(OCc3cccc(C[C@H](C(=O)O)[C@H]4CCNC4)c3)C2)c1)[C@H]1CCNC1 (some centres unmarked) [Example 6] | 7.70
2 | O=C(O)[C@@H](Cc1cccc(Oc2nc(Oc3cccc(C[C@H](C(=O)O)[C@H]4CCNC4)c3)nc(Oc3cccc(C[C@H](C(=O)O)[C@H]4CCNC4)c3)n2)c1)[C@H]1CCNC1 [Example 7] | 8.09
3 | O=C(NCCN(CCNC(=O)c1cccc(C[C@H](C(=O)O)[C@H]2CCNC2)c1)CCNC(=O)c1cccc(C[C@H](C(=O)O)[C@H]2CCNC2)c1)c1cccc(C[C@H](C(=O)O)[C@H]2CCNC2)c1 [Example 8] | 7.73
4 | O=C(O)[C@@H](Cc1cccc(OCc2cc(COc3cccc(C[C@H](C(=O)O)[C@H]4CCNC4)c3)cc(COc3cccc(C[C@H](C(=O)O)[C@H]4CCNC4)c3)c2)c1)[C@H]1CCNC1 [Example 10] | 7.60
5 | O=C(O)[C@@H](Cc1cccc(CN(Cc2cccc(C[C@H](C(=O)O)[C@H]3CCNC3)c2)Cc2cccc(C[C@H](C(=O)O)[C@H]3CCNC3)c2)c1)C1CNC1 [Example 11] | 7.85
